Assay results as given in patent publication US8053439B2, “Benzophenone derivatives useful for inhibiting formation of microtubule” (Chong Kun Dang Pharmaceutical Corp., priority 2006, dated 2011).
Where two headings read alike, the source gives them in different places.

Tested on: HL60 cells
Experiment: Inhibition effect of HL60 cell line growth (MTT, 3 days)
Assay type: cell-based
Settings: Homo sapiens, HL-60, 72 h, read-out: HL60 Growth Inhibition
Experimental: 1. Inhibition Effect of HL60 Cell Line Growth
A 10% FBS-contained RPMI1640 badge was used for culturing HL60 cells. The test substance was prepared by dissolving in DMSO to a concentration of 10 mg/ml, and continuously diluting with PBS to a final concentration of 100 μg/ml to 0.03 μg/ml. In a 96-well microplate, 180 μl of the badge containing 6.0×10^4 cells/ml of cells and 20 μl of continuously diluted test substance were added. The mixture was cultured at 37° C. with 5% CO2 atmosphere for 3 days. After completion of the cultivation, 50 μl of a solution of 1.25 mg/ml MTT (3-(4,5-dimethylthiazol-2-yl)-2,5-diphenyltetrazolium bromide) dissolved in PBS was added to all wells, and the resulting mixture was reacted at 37° C. for 3 hours. Thus formed formazan crystals were dissolved in 150 μl of DMSO, and an absorbance was measured at 570 nm.

[1] = HL60 cells, 3 days culture, MTT, absorbance 570 nm

IC50 [1] | Structure (SMILES) | IC50
170 nM | COc1cc(C(=O)c2cc(-c3ccco3)ccc2NCCO)cc(OC)c1OC [Compound 323, (5-(furan-2-yl)-2-(2-hydroxyethylamino)phenyl)(3,4,5-trimethoxyphenyl)methanone] | –
90 nM | COc1cc(C(=O)c2cc(-c3ccco3)ccc2OS(C)(=O)=O)cc(OC)c1OC [Compound 241, methanesulfonic acid 4-(furan-2-yl)-2-(3,4,5-trimethoxybenzoyl)phenyl] | –
4240 nM | COc1cc(C(=O)c2ccc(-c3nccs3)cc2OS(C)(=O)=O)cc(OC)c1OC [Compound 484, methanesulfonic acid 5-(thiazol-2-yl)-2-(3,4,5-trimethoxybenzoyl)phenyl ester] | –
110 nM | COc1cc(C(=O)c2cc(-c3ccco3)ccc2[N+](=O)[O-])cc(OC)c1OC [Compound 224, (5-(furan-2-yl)-2-nitrophenyl)(3,4,5-trimethoxyphenyl) methanone] | –
40 nM | COc1cc(C(=O)c2cc(-c3nccs3)ccc2-c2cnco2)cc(OC)c1OC [Compound 375, (2-(oxazol-5-yl)-5-(thiazol-2-yl)phenyl)(3,4,5-trimethoxyphenyl)methanone] | –
90 nM | COc1cc(C(=O)c2ccc(-c3cccc(N)c3)cc2-n2cncn2)cc(OC)c1OC [Compound 525, (3′-amino-3-(1H-1,2,4-triazol-1-yl)biphenyl-4-yl)(3,4,5-trimethoxyphenyl)methanone] | –
40 nM | COc1cc(C(=O)c2cccc(-c3ncco3)c2)cc(OC)c1OC [Compound 587, (3-(oxazol-2-yl)phenyl)(3,4,5-trimethoxyphenyl)methanone] | –
1340 nM | COc1cc(C(=O)c2ccc(-n3cncn3)cc2N)cc(OC)c1OC [Compound 272, (2-amino-4-(1H-1,2,4-triazol-1-yl)phenyl)(3,4,5-trimethoxyphenyl)methanone] | –
90 nM | COc1cc(C(=O)c2ccc(-c3nc(CO)cs3)cc2-n2cncn2)cc(OC)c1OC [Compound 554, ((4-(4-hydroxymethyl)thiazol-2-yl)-2-(1H-1,2,4-triazol-1-yl)phenyl)(3,4,5-trimethoxyphenyl)methanone] | –
120 nM | COc1ccc(-c2cccs2)cc1C(=O)c1cc(OC)c(OC)c(OC)c1 [Compound 594, (2-methoxy-5-(thiophen-2-yl)phenyl)(3,4,5-trimethoxyphenyl)methanone] | –
70 nM | COc1cc(C(=O)c2cc(-c3nccs3)ccc2-c2cncnc2)cc(OC)c1OC [Compound 365, (2-(pyrimidin-5-yl)-5-(thiazol-2-yl)phenyl)(3,4,5-trimethoxyphenyl)methanone] | –
480 nM | COc1ccc(-c2ccco2)cc1C(=O)c1cc(C)c(OC)c(C)c1 [Compound 264, (5-(furan-2-yl)-2-methoxyphenyl)(4-methoxy-3,5-dimethylphenyl)methanone] | –
20 nM | COc1cc(C(=O)c2ccc(-c3cccc(S(N)(=O)=O)c3)cc2-n2cncn2)cc(OC)c1OC [Compound 550] | –
100 nM | COc1cc(C(=O)c2cc(-c3ccccn3)ccc2-n2cncn2)cc(OC)c1OC [Compound 346, (5-(pyridin-2-yl)-2-(1H-1,2,4-triazol-1-yl)phenyl)(3,4,5-trimethoxyphenyl)methanone] | –
110 nM | COc1cc(C(=O)c2cc(-c3ccco3)ccc2NCCCO)cc(OC)c1OC [Compound 341, (5-(furan-2-yl)-2-(3-hydroxypropylamino)phenyl)(3,4,5-trimethoxyphenyl)methanone] | –
110 nM | COc1cc(C(=O)c2cc(-c3ccccn3)ccc2NCCCO)cc(OC)c1OC [Compound 380, (2-(3-hydroxypropylamino)-5-(pyridin-2-yl)phenyl)(3,4,5-trimethoxyphenyl)methanone] | –
35 nM | COc1ccc(-c2ccco2)cc1C(=O)c1cc(OC)c(OC)c(OC)c1 [Compound 203, (5-(furan-2-yl)-2-methoxyphenyl)(3,4,5-trimethoxyphenyl)methanone] | –
137 nM | COc1ccc(-c2ccc(OC)c(C(=O)c3cc(OC)c(OC)c(OC)c3)c2)cc1 [Compound 213, (4,4′-dimethoxybiphenyl-3-yl)(3,4,5-trimethoxyphenyl)methanone] | –
– | COc1ccc(-c2nccs2)cc1C(=O)c1cc(OC)c(OC)c(OC)c1 [Compound 583, (2-methoxy-5-(thiazol-2-yl)phenyl)(3,4,5-trimethoxyphenyl)methanone] | 10 nM
– | COc1cc(C(=O)c2ccc(-c3cccnc3)cc2-n2cncn2)cc(OC)c1OC [Compound 511, (4-pyridin-3-yl-2-[1,2,4]thiazol-1-yl-phenyl)(3,4,5-trimethoxyphenyl)methanone] | 100 nM

IC50 [1] | Structure (SMILES) | IC50
120 nM | COc1cc(C(=O)c2cc(-c3cccs3)ccc2-n2cncn2)cc(OC)c1OC [Compound 391, (5-(thiophen-2-yl)-2-(1H-1,2,4,-triazol-1-yl)phenyl)(3,4,5-trimethoxyphenyl)methanone] | –
– | COc1cc(C(=O)c2cc(-c3ccco3)cc(OC)c2OC)cc(OC)c1OC [Compound 206, (5-(furan-2-yl)-2,3-dimethoxyphenyl)(3,4,5-trimethoxyphenyl)methanone] | 145 nM
340 nM | C=CCNc1ccc(-c2ccco2)cc1C(=O)c1cc(OC)c(OC)c(OC)c1 [Compound 238, (2-(allylamino)-5-(furan-2-yl)phenyl)(3,4,5-trimethoxyphenyl)methanone] | –
– | COc1cc(C(=O)c2ccc(-c3cscn3)cc2-n2cncn2)cc(OC)c1OC [Compound 562, (4-(thiazol-4-yl)-2-(1H-1,2,4-triazol-1-yl)phenyl)(3,4,5-trimethoxyphenyl)methanone] | 80 nM
35 nM | COc1cc(C(=O)c2cc(-c3csc(N)n3)ccc2N)cc(OC)c1OC [Compound 297, (2-amino-5-(2-aminothiazol-4-yl)phenyl)(3,4,5-trimethoxyphenyl)methanone] | –
25 nM | COc1cc(C(=O)c2ccc(-c3cccc(NS(C)(=O)=O)c3)cc2-n2cncn2)cc(OC)c1OC [Compound 476, N-(3′-[1,2,4]triazol-1-yl-4′-(3,4,5-trimethoxybenzoyl)biphenyl-3-yl)methanesulfonamide] | –
120 nM | COc1ccc(-c2ccsc2)cc1C(=O)c1cc(OC)c(OC)c(OC)c1 [Compound 588, (2-methoxy-5-(thiophen-3-yl)phenyl)(3,4,5-trimethoxyphenyl)methanone] | –
90 nM | COc1cc(C(=O)c2ccc(-c3csc(CO)n3)cc2-n2cncn2)cc(OC)c1OC [Compound 564, (4-(2-(hydroxymethyl)thiazol-4-yl)-2-(1H-1,2,4-triazol-1-yl)phenyl)(3,4,5-trimethoxyphenyl)methanone] | –
17 nM | COc1cc(C(=O)c2cc(-c3ccccn3)ccc2N)cc(OC)c1OC [Compound 293, (2-amino-5-(pyridin-2-yl)phenyl)(3,4,5-trimethoxyphenyl)methanone] | –
110 nM | COc1cc(C(=S)c2cc(-c3ccco3)ccc2-n2cncn2)cc(OC)c1OC [Compound 399, (5-(furan-2-yl)-2-(1H-1,2,4-triazol-1-yl)phenyl)(3,4,5-trimethoxyphenyl)methanethione] | –
190 nM | COc1cc(C(=O)c2cc(-c3cccc(N)c3)ccc2N)cc(OC)c1OC [Compound 337, (4,5′-diaminophenyl-3-yl)(3,4,5-trimethoxyphenyl)methanone] | –
30 nM | COc1cc(C(=O)c2cc(-c3nccs3)ccc2-n2cnnn2)cc(OC)c1OC [Compound 401, (2-(1H-tetrazol-1-yl)-5-(thiazol-2-yl)phenyl)(3,4,5-trimethoxyphenyl)methanone] | –
160 nM | COc1cc(C(=O)c2cc(-c3csc(C)n3)ccc2N)cc(OC)c1OC [Compound 298, (2-amino-5-(2-methylthiazol-4-yl)phenyl)(3,4,5-trimethoxyphenyl)methanone] | –
– | COc1ccc(-c2ccc(N)c(C(=O)c3cc(OC)c(OC)c(OC)c3)c2)cc1 [Compound 226, (4-amino-4′-methoxybiphenyl-3-yl)(3,4,5-trimethoxyphenyl)methanone] | 370 nM
30 nM | COc1cc(C(=O)c2ccc(-c3csc(N)n3)cc2-n2cncn2)cc(OC)c1OC(F)F [Compound 547, (4-(2-aminothiazol-4-yl)-2-(1H-1,2,4-triazol-1-yl)phenyl)(4-(difluoromethoxy)-3,5-dimethoxyphenyl)methanone] | –
230 nM | COc1cc(C(=O)c2cc(-c3csc(C)n3)ccc2-n2cncn2)cc(OC)c1OC [Compound 596, (5-(2-methylthiazol-4-yl)-2-(1H-1,2,4-triazol-1-yl)phenyl)(3,4,5-trimethoxyphenyl)methanone] | –
1230 nM | COc1cc(C(=O)c2cc(-c3ncco3)ccc2NC(C)=O)cc(OC)c1OC [Compound 296, N-(4-(oxazol-2-yl)-2-(3,4,5-trimethoxybenzoyl)phenyl)acetamide] | –
200 nM | COc1cc(C(=O)c2cccc(-c3ccc[nH]3)c2)cc(OC)c1OC [Compound 591, (3-(1H-pyrrol-2-yl)phenyl)(3,4,5-trimethoxyphenyl)methanone] | –
220 nM | COc1cc(C(=O)c2cc(-c3ccc[nH]3)ccc2N)cc(OC)c1OC [Compound 597, (2-amino-5-(1H-pyrrol-2-yl)phenyl)(3,4,5-trimethoxyphenyl)methanone] | –
100 nM | COc1cc(C(=O)c2cc(-c3nccs3)ccc2NCCCO)cc(OC)c1OC [Compound 348, (2-(3-hydroxypropylamino)-5-(thiazol-2-yl)phenyl)(3,4,5-trimethoxyphenyl)methanone] | –
